Reference: ChEMBL document CHEMBL1287729, “Novel and efficient synthesis and antifungal evaluation of 2,3-functionalized cholestane and androstane derivatives” (2010)
≈ marks a conversion by molar mass, not a printed value. Calls of active or inactive are those of the source. No cut-off for these calls is given here.

Experiments:
Aspergillus fumigatus [1] = assay: Antifungal activity against Aspergillus fumigatus ATCC 16424 after 48 hrs by broth dilution method; format: functional; conditions: ATCC 16424, 48 h
Nakaseomyces glabratus [2] = assay: Antifungal activity against Candida glabrata ATCC 48435 after 48 hrs by broth dilution method; format: functional; conditions: ATCC 48435, 48 h
Aspergillus fumigatus [3] = assay: Antifungal activity against Aspergillus fumigatus ATCC 16424 at 128-0.01 ug/ml by spectroscopy analysis; format: functional, organism-based
Nakaseomyces glabratus [4] = assay: Antifungal activity against Candida glabrata ATCC 48435 at 128-0.01ug/ml spectroscopy analysis; format: functional, organism-based
Cryptococcus neoformans [5] = assay: Antifungal activity against Cryptococcus neoformans ATCC 36556 at128-0.01 ug/ml spectroscopy analysis; format: functional, organism-based
Candida albicans [6] = assay: Antifungal activity against Candida albicans ATCC 10231 at 128-0.01 ug/ml spectroscopy analysis; format: functional, organism-based
Candida albicans [7] = assay: Antifungal activity against Candida albicans ATCC 10231 after 48 hrs by broth dilution method; format: functional; conditions: ATCC 10231, 48 h
Cryptococcus neoformans [8] = assay: Antifungal activity against Cryptococcus neoformans ATCC 36556 after 48 hrs by broth dilution method; format: functional; conditions: ATCC 36556, 48 h

Row | SMILES | MIC (Aspergillus fumigatus [1]; read-out: MIC) | MIC (Cryptococcus neoformans [8]) | growth inhibition (GI) (Aspergillus fumigatus [3]) | growth inhibition (GI) (Candida albicans [6]) | also measured
1 | CC(C)CCC[C@@H](C)[C@H]1CC[C@H]2[C@@H]3CC[C@H]4C[C@@H](OC(=O)CCC(=O)O)[C@H](OC(=O)CCC(=O)O)C[C@]4(C)[C@H]3CC[C@]12C | 8 µg/mL (≈ 13.2 µM) |  | Active |  | MIC (Nakaseomyces glabratus [2]): 32 µg/mL (≈ 52.9 µM)
2 | C[C@@]12CCC[C@H]1[C@@H]1CC[C@H]3C[C@@H](O)CC[C@]3(C)[C@H]1CC2 |  |  | Active | Active | growth inhibition (GI) (Nakaseomyces glabratus [4]): Active; growth inhibition (GI) (Cryptococcus neoformans [5]): Active
3 | CC(=O)O[C@@H]1C[C@@]2(C)[C@@H](CC[C@@H]3[C@@H]2CC[C@]2(C)[C@@H]([C@H](C)CCCC(C)C)CC[C@@H]32)CC1=O |  |  |  | Active | MIC (Aspergillus fumigatus [1]): 128 µg/mL (≈ 288 µM)
4 | CC(C)CCC[C@@H](C)[C@H]1CC[C@H]2[C@@H]3CC[C@H]4C[C@@H](O)CC[C@]4(C)[C@H]3CC[C@]12C |  |  | Active | Active | growth inhibition (GI) (Nakaseomyces glabratus [4]): Active; growth inhibition (GI) (Cryptococcus neoformans [5]): Active
5 | CC(=O)O[C@@H]1C[C@@]2(C)[C@@H](CC[C@H]3[C@@H]4CCC[C@@]4(C)CC[C@@H]32)CC1=O | 1 µg/mL (≈ 3.01 µM) |  |  |  | MIC (Candida albicans [7]): 0.125 µg/mL (≈ 0.376 µM)
6 | CC(=O)O[C@]12C[C@@H]3CC[C@H]4[C@@H]5CCC[C@@]5(C)CC[C@@H]4[C@@]3(C)C[C@H]1O2 |  |  |  |  | MIC (Candida albicans [7]): 4 µg/mL (≈ 12 µM)
7 | CC(=O)O[C@@H]1C[C@@]2(C)[C@@H](CC[C@@H]3[C@@H]2CC[C@]2(C)[C@@H]([C@H](C)CCCC(C)C)CC[C@@H]32)C[C@H]1OC(=O)CCC(=O)O | 2 µg/mL (≈ 3.66 µM) | 8 µg/mL (≈ 14.6 µM) |  |  | 
8 | CC(=O)O[C@]12C[C@@H]3CC[C@@H]4[C@H](CC[C@]5(C)[C@@H]([C@H](C)CCCC(C)C)CC[C@@H]45)[C@@]3(C)C[C@H]1O2 |  |  |  |  | MIC (Aspergillus fumigatus [1]): 8 µg/mL (≈ 18 µM)

Second part, led by results:

Row | MIC (Aspergillus fumigatus [1]; read-out: MIC) | MIC (Cryptococcus neoformans [8]) | SMILES | growth inhibition (GI) (Aspergillus fumigatus [3]) | growth inhibition (GI) (Candida albicans [6]) | also measured
9 |  | 32 µg/mL (≈ 79.1 µM) | CC(C)CCC[C@@H](C)[C@H]1CC[C@H]2[C@@H]3CC[C@H]4C[C@@H](O)[C@H](O)C[C@]4(C)[C@H]3CC[C@]12C |  |  | 
10 |  | 4 µg/mL (≈ 8.95 µM) | CC(=O)O[C@@H]1C[C@@]2(C)[C@@H](CC[C@@H]3[C@@H]2CC[C@]2(C)[C@@H]([C@H](C)CCCC(C)C)CC[C@@H]32)C[C@H]1O |  |  | 
